Reference: patent publication US20240368104A1, “Novel Dialkoxynaphtho[2,3-C]Furan-1(3H)-One Derivatives and Pharmaceutical Composition For Preventing or Treating Respiratory Disease or SARS-COV-2 Infection Disease, Comprising Same” (priority 2021, published 2024)
Counter-ions that a name gives are not always drawn. Like-named read-outs stand apart in the source and are kept apart here.

Key:
in vitro = settings: African green monkey
SARS-COV-2 = test: microbe, parasite or virus in culture; type: cell-based; design: SI (Selectivity Index, CC50/IC50): unit not given here; settings: for SI (Selectivity Index, CC50/IC50): SARS-COV-2, values >50 assumed to be 50; for IC50: read-out: SARS-COV-2 inhibition (IC50)
[1] = Severe acute respiratory syndrome coronavirus 2, Vero cells, 24 hours infection
[2] = Severe acute respiratory syndrome coronavirus 2, Vero, 24 h

Compound | CC50 (in vitro) [µM] | SI (Selectivity Index, CC50/IC50) (SARS-COV-2) | IC50 (SARS-COV-2; [1]) [µM] | IC50 (SARS-COV-2; [2]) [µM]
COc1cc2cc3c(c(-c4cnc(N[C@@H](C)c5ccc(F)cc5)nc4)c2cc1OC)C(=O)OC3 [Example 55, (S)-9-(2-((1-(4-fluorophenyl)ethyl)amino)pyrimidin-5-yl)-6,7-dimethoxynaphtho[2,3-c]furan-1(3H)-one] | > 50 | 4.23 | 11.8 | –
COc1cc2cc3c(c(-c4cc5c(cc4OP(=O)(NC(C)C)Oc4ccccc4)OCO5)c2cc1OC)C(=O)OC3 (stereo not drawn) [Example 278, 6-(6,7-dimethoxy-3-oxo-1,3-dihydronaphtho[2,3-c]furan-4-yl)benzo[d][1,3]dioxol-5-yl phenyl isopropylphosphoramidate] | > 50 | 1.00 | – | > 50
COc1cc2cc3c(c(-c4cnc(/N=C\CN(C)C)cn4)c2cc1OC)C(=O)OC3 [Example 29, (Z)-9-(5-((2-(dimethylamino)ethyliden)amino)pyrazin-2-yl)-6,7-dimethoxynaphtho[2,3-c]furan-1(3H)-one] | > 50 | 1.00 | > 50 | –
CC[C@H](C)[C@H](N)C(=O)Oc1cc2c(cc1-c1c3c(cc4cc(OC)c(OC)cc14)COC3=O)OCO2 [Example 270, 6-(6,7-dimethoxy-3-oxo-1,3-dihydronaphtho[2,3-c]furan-4-yl)benzo[d][1,3]dioxol-5-yl L-isoleucinate] | > 50 | 122.64 | – | 0.41
COc1cc2cc3c(c(-c4cnc(OC)c(-c5nc6ccccc6[nH]5)c4)c2cc1OC)C(=O)OC3 [Example 204, 9-(5-(1H-benzo[d]imidazol-2-yl)-6-methoxypyridin-3-yl)-6,7-dimethoxynaphtho[2,3-c]furan-1(3H)-one] | 24.2 | 0.93 | – | 25.9
CNc1ccc(-c2c3c(cc4cc(OC)c(OC)cc24)COC3=O)cc1 [Example 246, 6,7-dimethoxy-9-(4-(methylamino)phenyl)naphtho[2,3-c]furan-1(3H)-one] | > 50 | 15.18 | 3.29 | –
COc1cc2cc3c(c(-c4cnc(N(C)c5cccc(C(F)(F)F)c5)nc4)c2cc1OC)C(=O)OC3 [Example 216, 6,7-dimethoxy-9-(2-(methyl(3-(trifluoromethyl)phenyl)amino)pyrimidin-5-yl)naphtho[2,3-c]furan-1(3H)-one] | > 50 | 52.13 | 0.96 | –
CCN(Cc1ccccc1C(F)(F)F)c1ccc(-c2c3c(cc4cc(OC)c(OC)cc24)COC3=O)cn1 [Example 209, 9-(6-(ethyl(2-(trifluoromethyl)benzyl)amino)pyridin-3-yl)-6,7-dimethoxynaphtho[2,3-c]furan-1(3H)-one] | > 50 | 14.52 | 3.44 | –
COc1cc2cc3c(c(-c4ccc(N(C)c5nnc(C)s5)nc4)c2cc1OC)C(=O)OC3 [Example 214, 6,7-dimethoxy-9-(6-(methyl(5-methyl-1,3,4-thiadiazol-2-yl)amino)pyridin-3-yl)naphtho[2,3-c]furan-1(3H)-one] | > 50 | 1.00 | > 50 | –
COc1cc2cc3c(c(-c4ccc5[nH]ccc5c4)c2cc1OC)C(=O)OC3 [Example 34, 9-(1H-indol-5-yl)-6,7-dimethoxynaphtho[2,3-c]furan-1(3H)-one] | > 50 | 12.40 | 4.03 | –
COc1cc2c(OC)c3c(c(-c4ccc(N(C)c5cccc(C(F)(F)F)c5)nc4)c2cc1OC)COC3=O.Cl [Example 263, 6,7,9-trimethoxy-4-(6-(methyl(3-(trifluoromethyl)phenyl)amino)pyridin-3-yl)naphtho[2,3-c]furan-1(3H)-one] | > 50 | 1.00 | – | > 50
COc1cc2cc3c(c(-c4ccc5occc5c4)c2cc1OC)C(=O)OC3 [Example 52, 9-(benzofuran-5-yl)-6,7-dimethoxynaphtho[2,3-c]furan-1(3H)-one] | > 50 | 35.13 | 1.42 | –
COc1cc2cc3c(c(-c4cnc(N(CCO)CCO)nc4)c2cc1OC)C(=O)OC3.Cl [Example 85, 9-(2-(bis(2-hydroxyethyl)amino)pyrimidin-5-yl)-6,7-dimethoxynaphtho[2,3-c]furan-1(3H)-one hydrochloride] | > 50 | 1.00 | – | > 50
COc1cc2cc3c(c(-c4ccc5nccc(Cl)c5c4)c2cc1OC)C(=O)OC3 [Example 138, 9-(4-chloroquinolin-6-yl)-6,7-dimethoxynaphtho[2,3-c]furan-1(3H)-one] | > 50 | 1.33 | 37.7 | –
COc1cc2cc3c(c(-c4ccc(N(C)CC(OC)OC)nc4)c2cc1OC)C(=O)OC3 [Example 162, 9-(6-((2,2-dimethoxyethyl)(methyl)amino)pyridin-3-yl)-6,7-dimethoxynaphtho[2,3-c]furan-1(3H)-one] | > 50 | 11.63 | 4.3 | –
CCN(c1ccc(-c2c3c(cc4cc(OC)c(OC)cc24)COC3=O)cn1)c1ncn(CC)n1 [Example 207, 9-(6-(ethyl(1-ethyl-1H-1,2,4-triazol-3-yl)amino)pyridin-3-yl)-6,7-dimethoxynaphtho[2,3-c]furan-1(3H)-one] | > 50 | 7.57 | 6.6 | –
COc1cc2cc3c(c(-c4cnc(NC5CC5)nc4)c2cc1OC)C(=O)OC3 [Example 69, 9-(2-(cyclopropylamino)pyrimidin-5-yl)-6,7-dimethoxynaphtho[2,3-c]furan-1(3H)-one] | > 50 | 1.00 | > 50 | –
COc1cc2cc3c(c(-c4ccc(N(C)C5CC5)nc4)c2cc1OC)C(=O)OC3 [Example 171, 9-(6-(cyclopropyl(methyl)amino)pyridin-3-yl)-6,7-dimethoxynaphtho[2,3-c]furan-1(3H)-one] | > 50 | 885.42 | 0.06 | –
COc1cc2cc3c(c(-c4ccc(N(C)C5CCCC5)nc4)c2cc1OC)C(=O)OC3 [Example 177, 9-(6-(cyclopentyl(methyl)amino)pyridin-3-yl)-6,7-dimethoxynaphtho[2,3-c]furan-1(3H)-one] | > 50 | 180.12 | 0.28 | –
CCN(c1ccc(-c2c3c(cc4cc(OC)c(OC)cc24)COC3=O)cn1)C1CCCC1 [Example 191, 9-(6-(cyclopentyl(ethyl)amino)pyridin-3-yl)-6,7-dimethoxynaphtho[2,3-c]furan-1(3H)-one] | > 50 | 35.47 | 1.41 | –
COc1cc2cc3c(c(-c4ccc5nccc(N6CCNCC6)c5c4)c2cc1OC)C(=O)OC3 [Example 135, 6,7-dimethoxy-9-(4-(piperazin-1-yl)quinolin-6-yl)naphtho[2,3-c]furan-1(3H)-one] | > 50 | 2.90 | 17.2 | –
COc1cc2cc3c(c(-c4ccc(N(C)c5nnc(C)o5)nc4)c2cc1OC)C(=O)OC3 [Example 231, 6,7-dimethoxy-9-(6-(methyl(5-methyl-1,3,4-oxadiazol-2-yl)amino)pyridin-3-yl)naphtho[2,3-c]furan-1(3H)-one] | > 50 | 1.00 | > 50 | –
COc1cc2cc3c(c(-c4ccc(N(C)C(C)C)nc4)c2cc1OC)C(=O)OC3 [Example 188, 9-(6-(isopropyl(methyl)amino)pyridin-3-yl)-6,7-dimethoxynaphtho[2,3-c]furan-1(3H)-one] | > 50 | 1418.97 | 0.04 | –
COc1cc2cc3c(c(-c4ccc5c(c4)CN(C)CC5)c2cc1OC)C(=O)OC3 [Example 190, 6,7-dimethoxy-9-(2-methyl-1,2,3,4-tetrahydroisoquinolin-7-yl)naphtho[2,3-c]furan-1(3H)-one] | > 50 | 1.73 | 29 | –
COc1cc2cc3c(c(-c4cnc(N(C)CCCN5CCOCC5)nc4)c2cc1OC)C(=O)OC3 [Example 112, 6,7-dimethoxy-9-(2-(methyl(3-morpholinopropyl)amino)pyrimidin-5-yl)naphtho[2,3-c]furan-1(3H)-one dihydrochloride] | > 50 | 6.70 | – | 7.46
COc1cc2cc3c(c(-c4cnc(N5CCCC(C(=O)O)C5)nc4)c2cc1OC)C(=O)OC3 (stereo not drawn) [Example 60, 1-(5-(6,7-dimethoxy-3-oxo-1,3-dihydronaphtho[2,3-c]furan-4-yl)pyrimidin-2-yl) piperidin-3-carboxylic acid] | > 50 | 1.00 | > 50 | –
CCCCN(CC)c1ncc(-c2c3c(cc4cc(OC)c(OC)cc24)COC3=O)cn1 [Example 66, 9-(2-(butyl(ethyl)amino)pyrimidin-5-yl)-6,7-dimethoxynaphtho[2,3-c]furan-1(3H)-one] | > 50 | 19.03 | 2.63 | –
COc1cc2cc3c(c(-c4ccc(N(C)c5ncn(C)n5)nc4)c2cc1OC)C(=O)OC3 [Example 206, 6,7-dimethoxy-9-(6-(methyl(1-methyl-1H-1,2,4-triazol-3-yl)amino)pyridin-3-yl)naphtho[2,3-c]furan-1(3H)-one] | > 50 | 2.79 | 17.9 | –
COc1cc2cc3c(c(N4C[C@@H](C)O[C@@H](C)C4)c2cc1OC)C(=O)OC3 [Example 2, 9-((2S,6R)-2,6-dimethylmorpholino)-6,7-dimethoxynaphtho[2,3-c]furan-1(3H)-one] | > 50 | 1.00 | > 50 | –
